{"source": "patent US12329137B2", "about": "“Method of preparing mouse model of herpes” (AJOU UNIVERSITY INDUSTRY-ACADEMIC COOPERATION FOUNDATION, priority 2019, dated 2025)", "format_in_all_cases": "in vivo, ICR mice", "key": {"[1]": {"test_system": "CD4+ immune-related cells", "test": "Flow cytometry frequency of CD4+ cells in peripheral blood leukocytes", "conditions": "HSV-1 inoculated mice", "procedure": "(§1) The ear inner conch of a large number of 5-week-old ICR mice bred and reared in SPF (specific pathogen free) conditions was injured by being scratched with an injection needle at a strength sufficient to prevent blood from bleeding out, then the injured site was first inoculated with 20 μL of HSV-1 (herpes simplex virus type 1, F strain) solution (1×10^6 pfu/mL), and the mice were reared for 10 days. Next, the same injured site was secondarily inoculated with the same dose of HSV-1. One time a day for 5 days from the day after the first inoculation had been performed and one time a day for 5 days from the day after the second inoculation had been performed, hydrocortisone was intraperitoneally injected into each mouse at 50 μg/day to 500 μg/day. Thereafter, the faces of the mice were observed, mice having blisters formed around the lips were selected, and these were used as mouse models of herpes (FIG. 1).\n(§2) Each mouse model of herpes was prepared by way of the method of Example 1 except that hydrocortisone was administered at about 50 μg/day, 150 μg/day, or 500 μg/day. Thereafter, peripheral blood was collected from each of the mouse models of herpes, peripheral blood leukocytes was isolated and obtained from the collected blood, and the frequencies of immune-related cells (CD4+, CD8+, and DX5+) contained in the peripheral blood leukocytes were measured and comparatively analyzed via flow cytometry (Tables 1 and 2). In this case, mouse models of herpes prepared without administration of hydrocortisone were used as a control group."}, "[2]": {"test_system": "CD8+ immune-related cells", "test": "Flow cytometry frequency of CD8+ cells in peripheral blood leukocytes", "conditions": "HSV-1 inoculated mice", "procedure": "as §1, §2"}, "[3]": {"test_system": "DX5+ immune-related cells", "test": "Flow cytometry frequency of DX5+ cells in peripheral blood leukocytes", "conditions": "HSV-1 inoculated mice", "procedure": "as §1, §2"}, "[4]": {"test_system": "herpes simplex virus type 1 (HSV-1)", "test": "Prevalence rate of herpes in mice given HSV-1 with hydrocortisone", "procedure": "as §1"}, "[5]": {"conditions": "hydrocortisone 50 μg/day intraperitoneal"}, "[6]": {"conditions": "hydrocortisone 150 μg/day intraperitoneal"}, "[7]": {"conditions": "hydrocortisone 500 μg/day intraperitoneal"}}}
{"smiles": "C[C@]12CCC(=O)C=C1CC[C@@H]1[C@@H]2[C@@H](O)C[C@@]2(C)[C@H]1CC[C@]2(O)C(=O)CO", "note": "[Hydrocortisone, hydrocortisone]", "values": [{"measurement": "expression frequency of CD4+ cells", "setting": "[1]; [5]", "result": "15.8 ± 8.8", "unit": "%"}, {"measurement": "expression frequency of CD4+ cells", "setting": "[1]; [6]", "result": "12.4 ± 7.8", "unit": "%"}, {"measurement": "expression frequency of CD4+ cells", "setting": "[1]; [7]", "result": "12.3 ± 4.7", "unit": "%"}, {"measurement": "expression frequency of CD8+ cells", "setting": "[2]; [5]", "result": "6.44 ± 2.6", "unit": "%"}, {"measurement": "expression frequency of CD8+ cells", "setting": "[2]; [6]", "result": "4.78 ± 1.7", "unit": "%"}, {"measurement": "expression frequency of CD8+ cells", "setting": "[2]; [7]", "result": "4.2 ± 1.7", "unit": "%"}, {"measurement": "expression frequency of DX5+ cells", "setting": "[3]; [5]", "result": "4.4 ± 2.4", "unit": "%"}, {"measurement": "expression frequency of DX5+ cells", "setting": "[3]; [6]", "result": "2.89 ± 1.9", "unit": "%"}, {"measurement": "expression frequency of DX5+ cells", "setting": "[3]; [7]", "result": "2.5 ± 1.9", "unit": "%"}, {"measurement": "Prevalence rate of herpes (symptomatic mice/total mice)", "setting": "[4]; HSV-1 + hydrocortisone at 150 μg/day in combination", "result": "14.7% (14/95)"}, {"measurement": "prevalence rate of herpes relative to mice administered with HSV-1 singly", "setting": "[4]; HSV-1 + hydrocortisone at 150 μg/day in combination vs HSV-1 singly", "result": "about 2.5 times"}]}
